Reference: ChEMBL document CHEMBL4507304, “Data for DCP probe TP-021” (2021)

Experiments:
[1] = test system: Tyrosine-protein kinase ABL1 (Homo sapiens), P00519 [M351T]; details: Compound concentration 1000.0 nM
[2] = test system: Tyrosine-protein kinase ABL1 (Homo sapiens), P00519 [Q252H]; details: Compound concentration 1000.0 nM
[3] = test system: Tyrosine-protein kinase ABL1 (Homo sapiens), P00519 [T315I]; details: Compound concentration 1000.0 nM
[4] = target: Tyrosine-protein kinase ABL1 (Homo sapiens) (UniProt P00519); details: Compound concentration 1000.0 nM
[5] = target: Activin receptor type-1 (Homo sapiens) (UniProt Q04771); details: Compound concentration 1000.0 nM
[6] = target: RAC-gamma serine/threonine-protein kinase (Homo sapiens) (UniProt Q9Y243); details: Compound concentration 1000.0 nM
[7] = target: 5'-AMP-activated protein kinase catalytic subunit alpha-2 (Homo sapiens) (UniProt P54646); details: Compound concentration 1000.0 nM
Sequence of 5'-AMP-activated protein kinase catalytic subunit alpha-2 (Homo sapiens) (P54646 whole entry, looked up, the tested form may be a part): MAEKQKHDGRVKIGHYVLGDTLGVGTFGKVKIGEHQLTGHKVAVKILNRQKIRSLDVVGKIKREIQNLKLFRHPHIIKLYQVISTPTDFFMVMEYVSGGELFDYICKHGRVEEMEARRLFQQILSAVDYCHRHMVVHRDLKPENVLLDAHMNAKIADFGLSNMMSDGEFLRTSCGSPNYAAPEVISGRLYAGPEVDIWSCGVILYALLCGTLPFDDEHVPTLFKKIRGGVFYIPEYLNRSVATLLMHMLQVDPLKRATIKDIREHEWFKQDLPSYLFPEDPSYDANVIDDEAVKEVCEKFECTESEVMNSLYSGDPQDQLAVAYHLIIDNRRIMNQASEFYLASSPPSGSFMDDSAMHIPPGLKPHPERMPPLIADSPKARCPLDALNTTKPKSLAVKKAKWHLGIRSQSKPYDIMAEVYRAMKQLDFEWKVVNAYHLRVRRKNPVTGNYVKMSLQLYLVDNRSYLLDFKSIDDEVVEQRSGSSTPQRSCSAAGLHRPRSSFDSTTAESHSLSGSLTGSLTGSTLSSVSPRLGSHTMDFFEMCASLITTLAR

[8] = target: Ankyrin repeat and protein kinase domain-containing protein 1 (Homo sapiens) (UniProt Q8NFD2); details: Compound concentration 1000.0 nM
Sequence of Ankyrin repeat and protein kinase domain-containing protein 1 (Homo sapiens) (Q8NFD2 whole entry, the tested form may be a part): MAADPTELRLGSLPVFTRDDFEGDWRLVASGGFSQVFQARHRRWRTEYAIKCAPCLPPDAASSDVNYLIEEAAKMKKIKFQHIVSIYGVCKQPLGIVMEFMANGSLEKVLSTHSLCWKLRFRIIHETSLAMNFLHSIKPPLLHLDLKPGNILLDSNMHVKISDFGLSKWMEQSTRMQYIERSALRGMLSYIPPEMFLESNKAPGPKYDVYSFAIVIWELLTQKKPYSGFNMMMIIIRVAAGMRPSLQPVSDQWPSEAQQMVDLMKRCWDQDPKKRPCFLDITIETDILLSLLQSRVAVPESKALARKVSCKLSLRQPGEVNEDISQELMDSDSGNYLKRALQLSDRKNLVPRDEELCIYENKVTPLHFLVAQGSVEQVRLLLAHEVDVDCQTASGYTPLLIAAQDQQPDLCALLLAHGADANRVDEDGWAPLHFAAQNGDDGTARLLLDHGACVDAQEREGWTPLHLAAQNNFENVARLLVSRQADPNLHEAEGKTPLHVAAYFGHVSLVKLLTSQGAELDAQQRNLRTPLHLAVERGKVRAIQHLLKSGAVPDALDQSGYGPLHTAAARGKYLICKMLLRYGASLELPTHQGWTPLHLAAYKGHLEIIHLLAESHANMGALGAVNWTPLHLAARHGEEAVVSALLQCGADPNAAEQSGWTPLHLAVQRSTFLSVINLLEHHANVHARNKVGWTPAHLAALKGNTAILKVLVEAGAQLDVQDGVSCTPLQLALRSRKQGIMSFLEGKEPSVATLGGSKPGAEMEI

[9] = target: Tyrosine-protein kinase Blk (Homo sapiens) (UniProt P51451); details: Compound concentration 1000.0 nM
Sequence of Tyrosine-protein kinase Blk (Homo sapiens) (P51451 2-505 limits assumed): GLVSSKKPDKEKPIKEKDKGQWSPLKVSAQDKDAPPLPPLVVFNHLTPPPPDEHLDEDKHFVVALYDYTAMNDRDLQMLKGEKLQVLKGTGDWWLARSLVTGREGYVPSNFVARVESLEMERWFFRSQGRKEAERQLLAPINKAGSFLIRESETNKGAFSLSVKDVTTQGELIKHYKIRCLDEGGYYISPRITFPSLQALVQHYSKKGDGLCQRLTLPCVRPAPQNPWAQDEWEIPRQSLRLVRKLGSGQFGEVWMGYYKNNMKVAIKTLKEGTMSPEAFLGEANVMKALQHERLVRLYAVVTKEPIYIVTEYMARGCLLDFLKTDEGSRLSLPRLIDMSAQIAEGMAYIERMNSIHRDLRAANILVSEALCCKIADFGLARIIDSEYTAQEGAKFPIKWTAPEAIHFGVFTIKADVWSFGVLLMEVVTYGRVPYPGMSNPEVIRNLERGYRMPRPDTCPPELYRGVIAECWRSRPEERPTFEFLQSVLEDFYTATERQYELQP

[10] = target: Bone morphogenetic protein receptor type-1B (Homo sapiens) (UniProt O00238); details: Compound concentration 1000.0 nM
[11] = target: Mitotic checkpoint serine/threonine-protein kinase BUB1 (Homo sapiens) (UniProt O43683); details: Compound concentration 1000.0 nM
[12] = target: Calcium/calmodulin-dependent protein kinase type 1 (Homo sapiens) (UniProt Q14012); details: Compound concentration 1000.0 nM
[13] = target: Calcium/calmodulin-dependent protein kinase type II subunit beta (Homo sapiens) (UniProt Q13554); details: Compound concentration 1000.0 nM
[14] = target: Calcium/calmodulin-dependent protein kinase type IV (Homo sapiens) (UniProt Q16566); details: Compound concentration 1000.0 nM
[15] = target: Cyclin-dependent kinase 3 (Homo sapiens) (UniProt Q00526); details: Compound concentration 1000.0 nM
[16] = target: Cyclin-dependent kinase 8 (Homo sapiens) (UniProt P49336); details: Compound concentration 1000.0 nM
[17] = target: Citron Rho-interacting kinase (Homo sapiens) (UniProt O14578); details: Compound concentration 1000.0 nM
[18] = target: Dual specificity protein kinase CLK2 (Homo sapiens) (UniProt P49760); details: Compound concentration 1000.0 nM
[19] = target: Death-associated protein kinase 1 (Homo sapiens) (UniProt P53355); details: Compound concentration 1000.0 nM
[20] = test system: Epidermal growth factor receptor (Homo sapiens), P00533 [UNDEFINED MUTATION]; details: Compound concentration 1000.0 nM
[21] = test system: Epidermal growth factor receptor (Homo sapiens), P00533 [G719C]; details: Compound concentration 1000.0 nM
[22] = test system: Epidermal growth factor receptor (Homo sapiens), P00533 [UNDEFINED MUTATION]; details: Compound concentration 1000.0 nM; remark: listed apart in the source
[23] = target: Focal adhesion kinase 1 (Homo sapiens) (UniProt Q05397); details: Compound concentration 1000.0 nM
[24] = target: Fibroblast growth factor receptor 3 (Homo sapiens) (UniProt P22607); details: Compound concentration 1000.0 nM
[25] = test system: Receptor-type tyrosine-protein kinase FLT3 (Homo sapiens), P36888 [UNDEFINED MUTATION]; details: Compound concentration 1000.0 nM
[26] = target: Tyrosine-protein kinase HCK (Homo sapiens) (UniProt P08631); details: Compound concentration 1000.0 nM
[27] = target: Insulin-like growth factor 1 receptor (Homo sapiens) (UniProt P08069); details: Compound concentration 1000.0 nM
[28] = target: Interleukin-1 receptor-associated kinase 4 (Homo sapiens) (UniProt Q9NWZ3); details: Compound concentration 1000.0 nM
[29] = target: Tyrosine-protein kinase JAK3 (Homo sapiens) (UniProt P52333); details: Compound concentration 1000.0 nM
[30] = target: Tyrosine-protein kinase Lck (Homo sapiens) (UniProt P06239); details: Compound concentration 1000.0 nM
[31] = target: Mitogen-activated protein kinase kinase kinase kinase 3 (Homo sapiens) (UniProt Q8IVH8); details: Compound concentration 1000.0 nM
[32] = target: Myosin-IIIb (Homo sapiens) (UniProt Q8WXR4); details: Compound concentration 1000.0 nM
[33] = target: Serine/threonine-protein kinase Nek10 (Homo sapiens) (UniProt Q6ZWH5); details: Compound concentration 1000.0 nM
[34] = target: Serine/threonine-protein kinase PAK 1 (Homo sapiens) (UniProt Q13153); details: Compound concentration 1000.0 nM
Sequence of Serine/threonine-protein kinase PAK 1 (Homo sapiens) (Q13153 whole entry): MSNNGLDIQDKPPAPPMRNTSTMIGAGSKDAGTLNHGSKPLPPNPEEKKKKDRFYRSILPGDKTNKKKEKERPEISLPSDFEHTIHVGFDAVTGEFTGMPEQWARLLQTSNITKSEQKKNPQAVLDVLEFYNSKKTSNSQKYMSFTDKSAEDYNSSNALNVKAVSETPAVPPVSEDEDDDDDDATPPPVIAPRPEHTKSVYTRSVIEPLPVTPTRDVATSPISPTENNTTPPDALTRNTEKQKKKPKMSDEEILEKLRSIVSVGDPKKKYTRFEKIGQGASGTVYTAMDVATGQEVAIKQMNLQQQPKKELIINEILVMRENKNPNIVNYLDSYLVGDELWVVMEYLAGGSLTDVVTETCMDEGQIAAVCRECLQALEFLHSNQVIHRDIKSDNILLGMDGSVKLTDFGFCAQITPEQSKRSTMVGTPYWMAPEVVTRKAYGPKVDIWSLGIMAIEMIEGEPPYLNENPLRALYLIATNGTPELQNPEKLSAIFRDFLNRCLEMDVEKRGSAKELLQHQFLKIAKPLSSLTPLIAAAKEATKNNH

[35] = target: 1-phosphatidylinositol 3-phosphate 5-kinase (Homo sapiens) (UniProt Q9Y2I7); details: Compound concentration 1000.0 nM
[36] = target: Phosphatidylinositol 4-phosphate 5-kinase type-1 alpha (Homo sapiens) (UniProt Q99755); details: Compound concentration 1000.0 nM
[37] = target: Serine/threonine-protein kinase PknB (Mycobacterium tuberculosis) (UniProt P9WI81); details: Compound concentration 1000.0 nM
[38] = target: Serine/threonine-protein kinase PLK4 (Homo sapiens) (UniProt O00444); details: Compound concentration 1000.0 nM
Sequence of Serine/threonine-protein kinase PLK4 (Homo sapiens) (O00444 whole entry): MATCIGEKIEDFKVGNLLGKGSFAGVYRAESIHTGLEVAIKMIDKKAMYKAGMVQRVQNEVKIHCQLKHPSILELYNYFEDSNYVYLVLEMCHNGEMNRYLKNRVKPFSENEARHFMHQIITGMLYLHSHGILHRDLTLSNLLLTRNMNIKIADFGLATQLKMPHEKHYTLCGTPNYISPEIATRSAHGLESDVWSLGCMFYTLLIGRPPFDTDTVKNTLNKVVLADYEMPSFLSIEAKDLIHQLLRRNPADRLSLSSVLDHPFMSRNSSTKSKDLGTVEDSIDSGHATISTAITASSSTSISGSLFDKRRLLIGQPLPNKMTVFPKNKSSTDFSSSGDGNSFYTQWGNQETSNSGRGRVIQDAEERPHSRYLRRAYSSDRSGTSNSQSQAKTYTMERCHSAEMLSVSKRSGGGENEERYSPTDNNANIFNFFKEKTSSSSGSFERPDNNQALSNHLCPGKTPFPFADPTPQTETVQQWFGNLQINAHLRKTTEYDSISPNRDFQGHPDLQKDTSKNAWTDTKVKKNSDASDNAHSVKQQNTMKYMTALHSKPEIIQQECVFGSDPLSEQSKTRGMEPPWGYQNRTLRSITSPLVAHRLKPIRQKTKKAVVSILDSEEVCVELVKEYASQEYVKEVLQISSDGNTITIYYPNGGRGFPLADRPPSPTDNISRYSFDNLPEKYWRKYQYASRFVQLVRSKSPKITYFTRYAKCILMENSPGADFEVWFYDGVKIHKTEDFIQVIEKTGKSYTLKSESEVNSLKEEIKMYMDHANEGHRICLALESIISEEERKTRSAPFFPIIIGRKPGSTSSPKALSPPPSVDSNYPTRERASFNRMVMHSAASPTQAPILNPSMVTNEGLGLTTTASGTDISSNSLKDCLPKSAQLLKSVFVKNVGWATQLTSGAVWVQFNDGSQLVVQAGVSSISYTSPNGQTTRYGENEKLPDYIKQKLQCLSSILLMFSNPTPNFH

[39] = target: cGMP-dependent protein kinase 1 (Homo sapiens) (UniProt Q13976); details: Compound concentration 1000.0 nM
[40] = target: Ribosomal protein S6 kinase alpha-5 (Homo sapiens) (UniProt O75582); details: Compound concentration 1000.0 nM
Sequence of Ribosomal protein S6 kinase alpha-5 (Homo sapiens) (O75582 whole entry, looked up): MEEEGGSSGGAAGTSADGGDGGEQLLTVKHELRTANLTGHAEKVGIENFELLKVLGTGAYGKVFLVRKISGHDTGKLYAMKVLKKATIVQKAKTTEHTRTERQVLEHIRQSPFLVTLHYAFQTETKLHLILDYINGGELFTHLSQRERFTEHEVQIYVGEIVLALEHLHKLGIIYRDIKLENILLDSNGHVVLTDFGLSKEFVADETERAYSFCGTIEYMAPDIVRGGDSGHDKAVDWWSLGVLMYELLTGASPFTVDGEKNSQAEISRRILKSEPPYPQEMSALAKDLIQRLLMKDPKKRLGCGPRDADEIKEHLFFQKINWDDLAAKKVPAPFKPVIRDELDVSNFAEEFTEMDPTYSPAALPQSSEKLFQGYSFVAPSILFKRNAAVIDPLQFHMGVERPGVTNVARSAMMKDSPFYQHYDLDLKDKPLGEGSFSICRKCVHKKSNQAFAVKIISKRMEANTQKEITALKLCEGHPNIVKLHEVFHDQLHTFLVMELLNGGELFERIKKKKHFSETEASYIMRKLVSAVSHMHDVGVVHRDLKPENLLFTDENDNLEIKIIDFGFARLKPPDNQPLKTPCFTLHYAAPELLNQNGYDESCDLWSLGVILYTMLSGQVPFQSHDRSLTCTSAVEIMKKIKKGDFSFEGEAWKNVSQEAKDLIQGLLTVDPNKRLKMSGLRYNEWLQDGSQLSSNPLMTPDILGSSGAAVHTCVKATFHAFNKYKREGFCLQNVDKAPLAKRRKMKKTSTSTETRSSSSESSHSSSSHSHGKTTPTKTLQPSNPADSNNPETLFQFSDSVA

[41] = target: Ribosomal protein S6 kinase beta-1 (Homo sapiens) (UniProt P23443); details: Compound concentration 1000.0 nM
[42] = target: Sodium-dependent noradrenaline transporter (Homo sapiens) (UniProt P23975); details: Compound concentration 10.0 uM
[43] = target: Histamine H3 receptor (Homo sapiens) (UniProt Q9Y5N1); details: Compound concentration 10.0 uM
[44] = target: Histamine H4 receptor (Homo sapiens) (UniProt Q9H3N8); details: Compound concentration 10.0 uM
Sequence of Histamine H4 receptor (Homo sapiens) (Q9H3N8 whole entry): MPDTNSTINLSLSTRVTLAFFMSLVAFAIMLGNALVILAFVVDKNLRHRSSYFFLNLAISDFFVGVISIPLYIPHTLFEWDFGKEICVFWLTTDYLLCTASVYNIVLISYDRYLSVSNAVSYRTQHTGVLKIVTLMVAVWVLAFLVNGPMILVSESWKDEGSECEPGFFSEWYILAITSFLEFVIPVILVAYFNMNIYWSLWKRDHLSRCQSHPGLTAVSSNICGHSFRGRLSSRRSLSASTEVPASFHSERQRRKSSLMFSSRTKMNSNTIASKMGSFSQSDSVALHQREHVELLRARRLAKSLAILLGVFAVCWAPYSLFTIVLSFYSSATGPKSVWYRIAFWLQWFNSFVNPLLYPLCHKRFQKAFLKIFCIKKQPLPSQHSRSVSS

[45] = target: Alpha-2C adrenergic receptor (Homo sapiens) (UniProt P18825); details: Compound concentration 10.0 uM
Sequence of Alpha-2C adrenergic receptor (Homo sapiens) (P18825 whole entry): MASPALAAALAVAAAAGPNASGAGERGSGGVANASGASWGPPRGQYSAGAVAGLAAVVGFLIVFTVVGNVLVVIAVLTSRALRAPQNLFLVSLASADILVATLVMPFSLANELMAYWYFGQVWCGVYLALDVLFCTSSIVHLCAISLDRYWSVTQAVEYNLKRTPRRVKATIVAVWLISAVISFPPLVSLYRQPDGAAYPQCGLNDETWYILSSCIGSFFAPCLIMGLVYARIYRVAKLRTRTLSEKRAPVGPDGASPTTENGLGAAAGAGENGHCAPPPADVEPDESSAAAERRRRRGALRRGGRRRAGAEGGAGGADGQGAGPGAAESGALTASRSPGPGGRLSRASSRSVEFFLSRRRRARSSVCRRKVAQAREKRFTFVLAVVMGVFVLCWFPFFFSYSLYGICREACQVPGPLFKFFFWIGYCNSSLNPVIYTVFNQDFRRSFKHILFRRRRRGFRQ

O=C1CCc2cc(Nc3cc(OC4CCOCC4)c([N+](=O)[O-])cc3Cl)ccc2N1
inactive: residual activity [1] 100% | residual activity [2] 100% | residual activity [3] 99% | residual activity [4] 100% | residual activity [5] 100% | residual activity [6] 94% | residual activity [7] 100% | residual activity [8] 82% | residual activity [9] 94% | residual activity [10] 87% | residual activity [11] 89% | residual activity [12] 93% | residual activity [13] 90% | residual activity [14] 100% | residual activity [15] 100% | residual activity [16] 100% | residual activity [17] 100% | residual activity [18] 99% | residual activity [19] 90% | residual activity [20] 100% | residual activity [21] 100% | residual activity [22] 65% | residual activity [23] 100% | residual activity [24] 100% | residual activity [25] 78% | residual activity [26] 100% | residual activity [27] 86% | residual activity [28] 100% | residual activity [29] 96% | residual activity [30] 100% | residual activity [31] 91% | residual activity [32] 97% | residual activity [33] 100% | residual activity [34] 88% | residual activity [35] 83% | residual activity [36] 100% | residual activity [37] 94% | residual activity [38] 86% | residual activity [39] 89% | residual activity [40] 100% | residual activity [41] 100% | inhibition [42] 0.76% | inhibition [43] 15.1% | inhibition [44] 11.6% | inhibition [45] -0.13%

N#Cc1ccc(Nc2ccc3[nH]c(=O)[nH]c3c2)c(Cl)c1
inactive: residual activity [1] 100% | residual activity [2] 100% | residual activity [3] 90% | residual activity [4] 100% | residual activity [5] 89% | residual activity [6] 69% | residual activity [7] 81% | residual activity [8] 100% | residual activity [9] 97% | residual activity [10] 100% | residual activity [11] 100% | residual activity [12] 86% | residual activity [13] 91% | residual activity [14] 100% | residual activity [15] 100% | residual activity [16] 100% | residual activity [17] 100% | residual activity [18] 100% | residual activity [19] 100% | residual activity [20] 100% | residual activity [21] 100% | residual activity [22] 62% | residual activity [23] 100% | residual activity [24] 100% | residual activity [25] 100% | residual activity [26] 100% | residual activity [27] 99% | residual activity [28] 100% | residual activity [29] 100% | residual activity [30] 100% | residual activity [31] 88% | residual activity [32] 100% | residual activity [33] 100% | residual activity [34] 85% | residual activity [35] 82% | residual activity [36] 100% | residual activity [37] 100% | residual activity [38] 87% | residual activity [39] 80% | residual activity [40] 100% | residual activity [41] 100% | inhibition [42] -2.68% | inhibition [43] 8.47% | inhibition [44] 4.43% | inhibition [45] 4.16%
